Data taken from US7910593B2, “Water-soluble prodrugs” (Chugai Seiyaku Kabushiki Kaisha, priority 2004, dated 2011).
Counter-ions that a name gives are not always drawn. Like-named read-outs stand apart in the source and are kept apart here.

Assays:
[1] = Test Example 3: solubility in distilled water; type: physicochemical
Text: The solubility of the water-soluble prodrugs obtained in the Examples (compounds 1A to 8A) in distilled water was compared to the solubility of (9S)-9-ethyl-9-hydroxy-1-pentyl-1H,12H-pyrano[3″,4″:6′,7′]indolizino[1′,2′:6,5]pyrido[4,3,2-de]quinazoline-10,13 (9H,15H)-dione (representative compound in Patent document 2: reference compound 1).

[2] = Comparative Test Example 1: conversion of reference compound 2 in human sera; type: in vitro ADME; settings: FIG. 6
Description: (§1) Compound 2A was incubated at 37° C. at a concentration of 50 μM in sera of humans, mice, monkeys, and dogs. Incubation was terminated at a given time (0, 30, 60, 120, and 360 minutes), and the samples were analyzed by HPLC after deproteinization treatments.
(§2) Conditions for the HPLC analysis are as follows: • HPLC conditions • Column: Develosil C30-UG-3, 3 μm, 50×4.6 mm I.D • Column Temperature: constant temperature at approximately 25° C. • Mobile phase: A: 10 mM phosphate buffer (pH4.7) • B: acetonitrile • /B (min): 90/10(0)→90/10(0.4)→40/60(6)→2/98(8)→90/10(9)→90/10(15)
(§3) Flow rate: 1.0 mL/min • Detection: photodiode array detector, detection wavelength 350 nm • Amount injected: 30 μL
(§4) Similar to Examination 1, the percent changes of (9S)-9-ethyl-9-(tryptophyl-γ-glutamyloxy)-1-pentyl-1H,12H-pyrano[3″,4″:6′,7′]indolizino[1′,2′:6,5]pyrido[4,3,2-de]quinazoline-10,13(9H,15H)-dione [representative compound (Q) in Patent document 1: reference compound 2] being converted in the lactone form and the carboxylate form over time in human and mouse sera were determined.

[3] = Comparative Test Example 1: conversion of reference compound 2 in mouse sera; type: in vitro ADME; settings: FIG. 7
Description: as §1, §2, §3, §4

[4] = system: human colon cancer cell line HCT116; experiment: Test Example 4: antitumor effect in HCT116 tumor-bearing nude mice; type: in vivo, BALB/c nude mice; settings: once per week for three weeks
Description: Antitumor effects were determined for representative examples of the group of compounds of the present invention. Tumor-bearing mice were generated by subcutaneous transplantation of human colon cancer cell line HCT116 obtained from American Type Culture Collection (Virginia, USA) into the right flank of BALB/c nude mice purchased from Charles River Japan, and used for determination of antitumor effects.
After a one-week quarantine period, the purchased nude mice were subjected to subcutaneous transplantation of 5×10^6 HCT116 cells at their right flank. Mice with a tumor size reaching 200 mm^3 or so were subjected to the experiment.
The compounds were dissolved in 1 mM citric bufferes saline, pH 4, and administered intravenously. The administration was carried out once per week for three weeks, for a total of three administrations. The antitumor effect was determined as tumor growth inhibition (TGI) using the following equation. Tumor growth inhibition (TGI) (%)={(1−mean tumor volume change in the drug-treated group/mean tumor volume change in the control group)×100} The results are shown in Table 6.

[5] = distilled water, read-out: Solubility in distilled water

CCCCCN1C=Nc2cccc3nc4c(c1c23)Cn1c-4cc2c(c1=O)COC(=O)[C@@]2(CC)OC(=O)CN(C)CCNC.Cl [Compound 1A, (9S)-9-Ethyl-9-{[methyl-(2-methylamino-ethyl)-amino]-acetoxy}-1-pentyl-1H,12H-pyrano[3″,4″:6′,7′]indolizino[1′,2′:6,5]pyrido[4,3,2-de]quinazoline-10,13(9H,15H)-dione hydrochloride]
solubility [1, 5]: > 10000 µg/mL

CCCCCN1C=Nc2cccc3nc4c(c1c23)Cn1c-4cc2c(c1=O)COC(=O)[C@@]2(CC)OC(=O)CN(C)C(=O)CNC.Cl [Compound 4A, (9S)-9-Ethyl-9-(sarcosyl-sarcosyloxy)-1-pentyl-1H,12H-pyrano[3″,4″:6′,7′]indolizino[1′,2′:6,5]pyrido[4,3,2-de]quinazoline-10,13(9H,15H)-dione hydrochloride]
solubility [1, 5]: > 10000 µg/mL

CC[C@@]1(OC(=O)CN(C)C(=O)CN)C(=O)OCc2c1cc1n(c2=O)Cc2cc3ccccc3nc2-1.Cl [Compound 5A, (aminoacetyl-methyl-amino)-acetic acid (S)-4-ethyl-3,13-dioxo-3,4,12,13-tetrahydro-1H-2-oxa-6,12a-diaza-dibenzo[b,h]fluoren-4-yl ester hydrochloride]
solubility [1, 5]: > 10000 µg/mL

CCCCCN1C=Nc2cccc3nc4c(c1c23)Cn1c-4cc2c(c1=O)COC(=O)[C@]2(O)CC [Reference compound 1, (9S)-9-ethyl-9-hydroxy-1-pentyl-1H,12H-pyrano[3″,4″:6′,7′]indolizino[1′,2′:6,5]pyrido[4,3,2-de]quinazoline-10,13 (9H,15H)-dione, reference compound]
solubility ([1]; water): < 10 µg/mL

CCCCCN1C=Nc2cccc3nc4c(c1c23)Cn1c-4cc2c(c1=O)COC(=O)[C@@]2(CC)OC(=O)OCCS(=O)(=O)C[C@H](N)C(=O)OC [Compound 6A, (9S)-9-{2-[(R-2-Amino-2-methoxycarbonyl)ethanesulfonyl]ethoxycarbonyloxy}-9-ethyl-1-pentyl-1H,12H-pyrano[3″,4″:6′,7′]indolizino[1′,2′:6,5]pyrido[4,3,2-de]quinazoline-10,13(9H,15H)-dione trifluoroacetic acid salt]
solubility [1, 5]: > 10000 µg/mL

CCCCCN1C=Nc2cccc3nc4c(c1c23)Cn1c-4cc2c(c1=O)COC(=O)[C@@]2(CC)OC(=O)CN(C)CCN.Cl [Compound 3A, (9S)-9-{[(2-Amino-ethyl)-methyl-amino]-acetoxy}-9-ethyl-1-pentyl-1H,12H-pyrano[3″,4″:6′,7′]indolizino[1′,2′:6,5]pyrido[4,3,2-de]quinazoline-10,13(9H,15H)-dione hydrochloride]
solubility [1, 5]: > 10000 µg/mL

CCCCCN1C=Nc2cccc3nc4c(c1c23)Cn1c-4cc2c(c1=O)COC(=O)[C@@]2(CC)OC(=O)CC[C@H](NC(=O)[C@@H](N)Cc1c[nH]c2ccccc12)C(=O)O [reference compound 2, (9S)-9-ethyl-9-(tryptophyl-γ-glutamyloxy)-1-pentyl-1H,12H-pyrano[3″,4″:6′,7′]indolizino[1′,2′:6,5]pyrido[4,3,2-de]quinazoline-10,13(9H,15H)-dione]
conversion rate and efficiency into the lactone form and the carboxylate form [2]: low
conversion rate and efficiency into the lactone form and the carboxylate form [3]: low

CCCCCN1C=Nc2cccc3nc4c(c1c23)Cn1c-4cc2c(c1=O)COC(=O)[C@@]2(CC)OC(=O)OCCS(=O)(=O)CCN.Cl [Compound 8A, (9S)-9-[2-(2-Aminoethanesulfonyl)ethoxycarbonyloxy]-9-ethyl-1-pentyl-1H,12H-pyrano[3″,4″: 6′,7′]indolizino[1′,2′:6,5]pyrido[4,3,2-de]quinazoline-10,13(9H,15H)-dione hydrochloride]
solubility [1, 5]: > 10000 µg/mL
TGI (%) on Day 21 ([4]; 0.9 mg/kg intravenously): 41%
TGI (%) on Day 21 ([4]; 1.9 mg/kg intravenously): 53%
TGI (%) on Day 21 ([4]; 3.75 mg/kg intravenously): 55%
TGI (%) on Day 21 ([4]; 7.5 mg/kg intravenously): 61%
TGI (%) on Day 21 ([4]; 15 mg/kg intravenously): 78%
TGI (%) on Day 21 ([4]; 30 mg/kg intravenously): 96%
TGI (%) on Day 21 ([4]; 60 mg/kg intravenously): 106%
